In patent publication US9512107B2, “Therapeutically active compositions and their methods of use” (Agios Pharmaceuticals, Inc., priority 2012, dated 2016) one finds IC50 data, which are given here for 18 compounds.

For one experiment, the target named is T1, IDH2 R172K (Homo sapiens, UniProt P48735, R172K).
T1 sequence (P48735 40-452 R172K): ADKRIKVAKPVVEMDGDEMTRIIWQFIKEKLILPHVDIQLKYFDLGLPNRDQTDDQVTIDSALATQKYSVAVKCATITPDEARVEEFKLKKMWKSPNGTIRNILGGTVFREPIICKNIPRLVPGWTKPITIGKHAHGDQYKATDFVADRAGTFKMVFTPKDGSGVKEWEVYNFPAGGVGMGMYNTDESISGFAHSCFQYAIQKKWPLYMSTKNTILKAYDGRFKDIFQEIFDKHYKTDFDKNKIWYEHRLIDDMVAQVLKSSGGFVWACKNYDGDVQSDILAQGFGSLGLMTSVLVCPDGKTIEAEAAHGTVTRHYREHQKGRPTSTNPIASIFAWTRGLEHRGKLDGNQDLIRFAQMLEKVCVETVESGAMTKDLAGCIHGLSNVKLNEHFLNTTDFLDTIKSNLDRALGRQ
Briefly: IDH2 R172K enzymatic assay (NADPH cofactor depletion, diaphorase/resazurin readout). The settings on record: read-out: Enz R172K. The experiment is classed as biochemical. An outline of the steps:
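Cofactor depletion format: enzyme + compound 1 h RT; add substrate mix (50 μM NADPH, 6.3 mM α-KG); react 1 h RT; quench with stop mix (36 μg/ml diaphorase, 60 μM resazurin); read resorufin fluorescence as residual NADPH.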

The next experiment addresses T2, IDH2 R140Q (Homo sapiens, UniProt P48735, R140Q).
T2 sequence (P48735 40-452 R140Q): T1 sequence (P48735 40-452 R172K) with R101Q, K133R
Put plainly: IDH2 R140Q enzymatic assay (cofactor depletion, similar format). The experiment is classed as biochemical. The settings on record: read-out: Enz R140Q.

Experiment [1] has as its system U87MG pLVX-IDH2 R140Q-neo cells. Briefly: U87MG pLVX-IDH2 R140Q-neo cell based assay, 2-HG in media by LC-MS at 48 hours. The settings on record: Homo sapiens, U-87 MG. An outline of the steps:
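2-HG secreted into the medium was measured by LC-MS after 48 h of compound treatment (0.2% DMSO final) of U87MG pLVX-IDH2 R140Q-neo cells in DMEM/10% FBS. The same wells were assayed at 72 h by CellTiter-Glo luminescence for effects on growth.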

Substitutions are numbered along the chain they refer to. Bounds are passed on as bounds.

`CS(=O)(=O)c1cc(Cl)cc(Nc2nc(NCC3CC3)nc(-c3cccc(C(F)(F)F)n3)n2)c1` [Compound 599, N2-(3-chloro-5-(methylsulfonyl)phenyl)-N4-(cyclopropylmethyl)-6-(6-(trifluoromethyl)pyridin-2-yl)-1,3,5-triazine-2,4-diamine]: the IC50 was < 100 nM on IDH2 R172K, 100 to 1000 nM on IDH2 R140Q and < 100 nM in experiment [1].
`CC(C)(C)Nc1nc(Nc2cc(Cl)cc(S(C)(=O)=O)c2)nc(-c2cccc(C(F)(F)F)n2)n1` [Compound 600, N2-(tert-butyl)-N4-(3-chloro-5-(methylsulfonyl)phenyl)-6-(6-(trifluoromethyl)pyridin-2-yl)-1,3,5-triazine-2,4-diamine]: the IC50 on IDH2 R172K is < 100 nM; on IDH2 R140Q it was 100 to 1000 nM; in experiment [1], < 100 nM.
For the compound `CC(C)(C)Nc1nc(Nc2cc(F)cc(F)c2)nc(-c2cccc(C(F)(F)F)n2)n1` [Compound 601, N2-(tert-butyl)-N4-(3,5-difluorophenyl)-6-(6-(trifluoromethyl)pyridin-2-yl)-1,3,5-triazine-2,4-diamine], the IC50 is < 100 nM at IDH2 R172K, 100 to 1000 nM on IDH2 R140Q and < 100 nM in experiment [1].
Consider `CC(C)(C)Nc1nc(Nc2ccnc(C(F)(F)F)c2)nc(-c2cccc(C(F)(F)F)n2)n1` [Compound 602, N2-(tert-butyl)-6-(6-(trifluoromethyl)pyridin-2-yl)-N4-(2-(trifluoromethyl)pyridin-4-yl)-1,3,5-triazine-2,4-diamine], for which the IC50 at IDH2 R172K is < 100 nM; at IDH2 R140Q, 100 to 1000 nM; in experiment [1], < 100 nM.
Regarding `CC(C)Nc1nc(Nc2cc(F)cc(F)c2)nc(-c2cccc(C(F)(F)F)n2)n1` [Compound 603, N2-(3,5-difluorophenyl)-N4-isopropyl-6-(6-(trifluoromethyl)pyridin-2-yl)-1,3,5-triazine-2,4-diamine], the IC50 on IDH2 R172K was < 100 nM; at IDH2 R140Q it was 100 to 1000 nM; in experiment [1] it was < 100 nM.
Take `CC(F)(F)c1cc(Nc2nc(NCC3CC3)nc(-c3cccc(C(F)(F)F)n3)n2)ccn1` [Compound 604, N2-(cyclopropylmethyl)-N4-(2-(1,1-difluoroethyl)pyridin-4-yl)-6-(6-(trifluoromethyl)pyridin-2-yl)-1,3,5-triazine-2,4-diamine]: the IC50 at IDH2 R172K was < 100 nM; at IDH2 R140Q, 100 to 1000 nM; in experiment [1] it was < 100 nM.
Turning to `CC(C)(O)CNc1nc(Nc2ccnc(C(C)(F)F)c2)nc(-c2cccc(C(C)(F)F)n2)n1` [Compound 605, 1-((4-(6-(1,1-difluoroethyl)pyridin-2-yl)-6-((2-(1,1-difluoroethyl)pyridin-4-yl)amino)-1,3,5-triazin-2-yl)amino)-2-methylpropan-2-ol], the IC50 at IDH2 R172K was 100 to 1000 nM; at IDH2 R140Q, 100 to 1000 nM; in experiment [1], < 100 nM.
Regarding `CC(C)(C)Nc1nc(Nc2ccnc(C3(C#N)CC3)c2)nc(-c2cccc(C(C)(F)F)n2)n1` [Compound 606, 1-(4-((4-(tert-butylamino)-6-(6-(1,1-difluoroethyl)pyridin-2-yl)-1,3,5-triazin-2-yl)amino)pyridin-2-yl)cyclopropanecarbonitrile], the IC50 was < 100 nM on IDH2 R172K, 100 to 1000 nM on IDH2 R140Q and < 100 nM in experiment [1].
For the compound `CS(=O)(=O)c1cccc(Nc2nc(NCC3CC3)nc(-c3cccc(C(F)(F)F)n3)n2)c1` [Compound 607, N2-(cyclopropylmethyl)-N4-(3-(methylsulfonyl)phenyl)-6-(6-(trifluoromethyl)pyridin-2-yl)-1,3,5-triazine-2,4-diamine], the IC50 was 100 to 1000 nM on IDH2 R172K, 100 to 1000 nM at IDH2 R140Q and < 100 nM in experiment [1].
`CC(C)(C)Nc1nc(Nc2ccnc(C3(C#N)CC3)c2)nc(-c2cccc(C(F)(F)F)n2)n1` [Compound 608, 1-(4-((4-(tert-butylamino)-6-(6-(trifluoromethyl)pyridin-2-yl)-1,3,5-triazin-2-yl)amino)pyridin-2-yl)cyclopropanecarbonitrile]: the IC50 on IDH2 R172K is < 100 nM; on IDH2 R140Q, 100 to 1000 nM; in experiment [1], < 100 nM.
In the case of `CC(F)(F)c1cccc(-c2nc(NCC3CC3)nc(Nc3cc(Cl)cc(S(C)(=O)=O)c3)n2)n1` [Compound 609, N2-(3-chloro-5-(methylsulfonyl)phenyl)-N4-(cyclopropylmethyl)-6-(6-(1,1-difluoroethyl)pyridin-2-yl)-1,3,5-triazine-2,4-diamine], the IC50 on IDH2 R172K was < 100 nM; on IDH2 R140Q, 100 to 1000 nM; in experiment [1], < 100 nM.
Turning to `CC(F)(F)c1cc(Nc2nc(NCC3CC3)nc(-c3cccc(C(C)(F)F)n3)n2)ccn1` [Compound 610, N2-(cyclopropylmethyl)-6-(6-(1,1-difluoroethyl)pyridin-2-yl)-N4-(2-(1,1-difluoroethyl)pyridin-4-yl)-1,3,5-triazine-2,4-diamine], the results for the IC50 (at IDH2 R172K; on IDH2 R140Q; in experiment [1]) were < 100 nM, 100 to 1000 nM and < 100 nM, respectively.
For the compound `CC(F)(F)c1cccc(-c2nc(NCC3CC3)nc(Nc3cccc(S(C)(=O)=O)c3)n2)n1` [Compound 611, N2-(cyclopropylmethyl)-6-(6-(1,1-difluoroethyl)pyridin-2-yl)-N4-(3-(methylsulfonyl)phenyl)-1,3,5-triazine-2,4-diamine], the IC50 is 100 to 1000 nM at IDH2 R172K, 100 to 1000 nM on IDH2 R140Q and < 100 nM in experiment [1].
For the compound `CC(F)(F)c1cccc(-c2nc(NCC3CC3)nc(Nc3cc(F)cc(S(C)(=O)=O)c3)n2)n1` [Compound 612, N2-(cyclopropylmethyl)-6-(6-(1,1-difluoroethyl)pyridin-2-yl)-N4-(3-fluoro-5-(methylsulfonyl)phenyl)-1,3,5-triazine-2,4-diamine], the results for the IC50 (on IDH2 R172K; at IDH2 R140Q; in experiment [1]) were < 100 nM, 100 to 1000 nM and < 100 nM, respectively.
Take `CC(C)Nc1nc(Nc2cc(F)cc(S(C)(=O)=O)c2)nc(-c2cccc(C(C)(F)F)n2)n1` [Compound 613, 6-(6-(1,1-difluoroethyl)pyridin-2-yl)-N2-(3-fluoro-5-(methylsulfonyl)phenyl)-N4-isopropyl-1,3,5-triazine-2,4-diamine]: the IC50 at IDH2 R172K was < 100 nM; at IDH2 R140Q, 100 to 1000 nM; in experiment [1] it was < 100 nM.
On to `CC(C)Nc1nc(Nc2cc(Cl)cc(S(C)(=O)=O)c2)nc(-c2cccc(C(C)(F)F)n2)n1` [Compound 614, N2-(3-chloro-5-(methylsulfonyl)phenyl)-6-(6-(1,1-difluoroethyl)pyridin-2-yl)-N4-isopropyl-1,3,5-triazine-2,4-diamine], for which the IC50 on IDH2 R172K was < 100 nM; on IDH2 R140Q it was 100 to 1000 nM; in experiment [1], < 100 nM.
In the case of `CC(C)(C)Nc1nc(Nc2cc(Cl)cc(S(C)(=O)=O)c2)nc(-c2cccc(C(C)(F)F)n2)n1` [Compound 615, N2-(tert-butyl)-N4-(3-chloro-5-(methylsulfonyl)phenyl)-6-(6-(1,1-difluoroethyl)pyridin-2-yl)-1,3,5-triazine-2,4-diamine], the IC50 on IDH2 R172K is 100 to 1000 nM; at IDH2 R140Q, 100 to 1000 nM; in experiment [1] it was < 100 nM.
In the case of `CC(C)(C)Nc1nc(Nc2cc(F)cc(S(C)(=O)=O)c2)nc(-c2cccc(C(C)(F)F)n2)n1` [Compound 616, N2-(tert-butyl)-6-(6-(1,1-difluoroethyl)pyridin-2-yl)-N4-(3-fluoro-5-(methylsulfonyl)phenyl)-1,3,5-triazine-2,4-diamine], the IC50 was < 100 nM on IDH2 R172K, 100 to 1000 nM on IDH2 R140Q and < 100 nM in experiment [1].
